How the values were obtained:
[1] = species on record: Homo sapiens; test: Inhibition of growth of human keratinocytes; assay type: functional
[2] = Competitive inhibition of ATP binding
[3] = Inhibition of growth of T-cell lymphoblastoma; range 1-10 uM; assay type: functional
[4] = biological target: T1, Vitamin D3 receptor (Homo sapiens, UniProt P11473); test: Binding affinity to VDR receptor
T1 sequence (P11473 whole entry): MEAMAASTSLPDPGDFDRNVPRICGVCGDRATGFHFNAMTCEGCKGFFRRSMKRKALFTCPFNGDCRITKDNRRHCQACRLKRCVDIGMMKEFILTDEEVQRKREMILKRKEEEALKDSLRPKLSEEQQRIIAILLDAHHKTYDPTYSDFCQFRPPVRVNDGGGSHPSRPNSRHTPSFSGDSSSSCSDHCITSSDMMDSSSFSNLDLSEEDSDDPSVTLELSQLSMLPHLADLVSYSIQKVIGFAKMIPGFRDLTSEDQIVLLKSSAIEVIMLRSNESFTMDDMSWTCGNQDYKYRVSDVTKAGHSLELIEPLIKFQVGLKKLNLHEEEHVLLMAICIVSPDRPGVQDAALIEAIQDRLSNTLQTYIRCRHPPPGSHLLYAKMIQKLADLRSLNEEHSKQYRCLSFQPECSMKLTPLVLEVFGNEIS

[5] = biological target: Inosine-5'-monophosphate dehydrogenase (IMPDH) (Homo sapiens, UniProt P20839+P12268); test: Inhibition of […] dehydrogenase (IMPDH); range 7-8 nM; assay type: protein assay

In the case of C=C1/C(=C\C=C2/CCC[C@]3(C)[C@@H]([C@H](C)/C=C/[C@@H](O)C4CC4)CC[C@@H]23)C[C@@H](O)C[C@@H]1O [CALCIPOTRIENE], the IC50 [1] is reported as 32 nM.

In the case of COc1cc2ncnc(Nc3cccc(Br)c3)c2cc1OC, the IC50 [2] is reported as 0.025 nM.

For C/C(O)=C(\C#N)C(=O)Nc1ccc(C(F)(F)F)cc1, the Concentration [3] was 1 µM.

C=C1/C(=C\C=C2/CCC[C@]3(C)C([C@@H](C)COc4ccc(C(C)(C)O)cc4)CC[C@@H]23)C[C@@H](O)C[C@@H]1O (some centres undefined) showed a Kd [4] of 0.073 nM and an IC50 [1] of 0.11 nM.

With COc1c(C)c2c(c(N)c1C/C=C1\CCCC1[C@H](C)C(=O)O)C(=O)OC2 (some centres undefined) the IC50 [5] was 7 nM.

Work on C=C1/C(=C\C=C2/CCC[C@]3(C)C([C@@H](C)CSc4ccc(C(C)(C)O)cc4)CC[C@@H]23)C[C@@H](O)C[C@@H]1O (some centres undefined) yielded a Kd [4] of 0.089 nM and an IC50 [1] of 0.28 nM.

Molecule COc1cc(NC(=O)Nc2cccc(CNC(=O)O[C@H]3CCOC3)c2)ccc1-c1cnco1 [MERIMEPODIB] has an IC50 [5] of 7 nM.

— ChEMBL document CHEMBL1134331, “New dermatological agents for the treatment of psoriasis” (J Med Chem, 2001)
